Assay results as given in ChEMBL document CHEMBL4507289, “Data for DCP probe GSM1” (2021).
pKi: −log10 of the molar value.

How the values were obtained:
[1] = target: Sodium-dependent serotonin transporter (Homo sapiens, UniProt P31645); test: GPCRScan assay: inhibition of SERT; set-up: radioligand conc. used [nm] 1.5 – 2.0, parental cells stable HEK; conditions: for pKi: read-out: Ki
[2] = tested on: Tyrosine-protein kinase ABL1 (Homo sapiens), P00519 [T315I]; conditions: Compound concentration 1000.0 nM
[3] = tested on: ALK tyrosine kinase receptor (Homo sapiens), Q9UM73 [C1156Y]; conditions: Compound concentration 1000.0 nM
[4] = target: 5'-AMP-activated protein kinase catalytic subunit alpha-1 (Homo sapiens) (UniProt Q13131); conditions: Compound concentration 1000.0 nM
[5] = target: Mitotic checkpoint serine/threonine-protein kinase BUB1 (Homo sapiens) (UniProt O43683); conditions: Compound concentration 1000.0 nM
[6] = target: Calcium/calmodulin-dependent protein kinase kinase 2 (Homo sapiens) (UniProt Q96RR4); conditions: Compound concentration 1000.0 nM
[7] = target: Cyclin-dependent kinase 19 (Homo sapiens) (UniProt Q9BWU1); conditions: Compound concentration 1000.0 nM
[8] = target: Cyclin-dependent kinase 4 (Homo sapiens) (UniProt P11802); conditions: Compound concentration 1000.0 nM
[9] = target: Cyclin-dependent kinase 9 (Homo sapiens) (UniProt P50750); conditions: Compound concentration 1000.0 nM
[10] = target: Serine/threonine-protein kinase Chk2 (Homo sapiens) (UniProt O96017); conditions: Compound concentration 1000.0 nM
[11] = tested on: Epidermal growth factor receptor (Homo sapiens), P00533 [G719S]; conditions: Compound concentration 1000.0 nM
[12] = tested on: Epidermal growth factor receptor (Homo sapiens), P00533 [UNDEFINED MUTATION]; conditions: Compound concentration 1000.0 nM
[13] = target: Ephrin type-A receptor 3 (Homo sapiens) (UniProt P29320); conditions: Compound concentration 1000.0 nM
[14] = target: Ephrin type-B receptor 6 (Homo sapiens) (UniProt O15197); conditions: Compound concentration 1000.0 nM
[15] = target: Mitogen-activated protein kinase 15 (Homo sapiens) (UniProt Q8TD08); conditions: Compound concentration 1000.0 nM
[16] = tested on: Receptor-type tyrosine-protein kinase FLT3 (Homo sapiens), P36888 [D835V]; conditions: Compound concentration 1000.0 nM
[17] = tested on: Receptor-type tyrosine-protein kinase FLT3 (Homo sapiens), P36888 [K663Q]; conditions: Compound concentration 1000.0 nM
[18] = target: Homeodomain-interacting protein kinase 2 (Homo sapiens) (UniProt Q9H2X6); conditions: Compound concentration 1000.0 nM
[19] = target: Homeodomain-interacting protein kinase 3 (Homo sapiens) (UniProt Q9H422); conditions: Compound concentration 1000.0 nM
[20] = target: Homeodomain-interacting protein kinase 4 (Homo sapiens) (UniProt Q8NE63); conditions: Compound concentration 1000.0 nM
[21] = target: Interleukin-1 receptor-associated kinase 4 (Homo sapiens) (UniProt Q9NWZ3); conditions: Compound concentration 1000.0 nM
[22] = tested on: Mast/stem cell growth factor receptor Kit (Homo sapiens), P10721 [V559D,V654A]; conditions: Compound concentration 1000.0 nM
[23] = tested on: Leucine-rich repeat serine/threonine-protein kinase 2 (Homo sapiens), Q5S007 [G2019S]; conditions: Compound concentration 1000.0 nM
[24] = target: Mitogen-activated protein kinase kinase kinase 4 (Homo sapiens) (UniProt Q9Y6R4); conditions: Compound concentration 1000.0 nM
[25] = target: Mitogen-activated protein kinase kinase kinase kinase 2 (Homo sapiens) (UniProt Q12851); conditions: Compound concentration 1000.0 nM
[26] = target: Myosin-IIIb (Homo sapiens) (UniProt Q8WXR4); conditions: Compound concentration 1000.0 nM
[27] = target: Serine/threonine-protein kinase Nek1 (Homo sapiens) (UniProt Q96PY6); conditions: Compound concentration 1000.0 nM
[28] = target: Serine/threonine-protein kinase Nek5 (Homo sapiens) (UniProt Q6P3R8); conditions: Compound concentration 1000.0 nM
[29] = tested on: Phosphatidylinositol 4,5-bisphosphate 3-kinase catalytic subunit alpha isoform (Homo sapiens), P42336 [E545A]; conditions: Compound concentration 1000.0 nM
[30] = target: Phosphatidylinositol 4,5-bisphosphate 3-kinase catalytic subunit delta isoform (Homo sapiens) (UniProt O00329); conditions: Compound concentration 1000.0 nM
[31] = target: Protein kinase C iota type (Homo sapiens) (UniProt P41743); conditions: Compound concentration 1000.0 nM
[32] = target: Serine/threonine-protein kinase D1 (Homo sapiens) (UniProt Q15139); conditions: Compound concentration 1000.0 nM
[33] = target: Protein-tyrosine kinase 2-beta (Homo sapiens) (UniProt Q14289); conditions: Compound concentration 1000.0 nM
[34] = target: Serine/threonine-protein kinase RIO1 (Homo sapiens) (UniProt Q9BRS2); conditions: Compound concentration 1000.0 nM
[35] = target: Receptor-interacting serine/threonine-protein kinase 1 (Homo sapiens) (UniProt Q13546); conditions: Compound concentration 1000.0 nM
[36] = target: Rho-associated protein kinase 2 (Homo sapiens) (UniProt O75116); conditions: Compound concentration 1000.0 nM
[37] = target: Ribosomal protein S6 kinase alpha-5 (Homo sapiens) (UniProt O75582); conditions: Compound concentration 1000.0 nM
[38] = target: Tyrosine-protein kinase Srms (Homo sapiens) (UniProt Q9H3Y6); conditions: Compound concentration 1000.0 nM
[39] = target: Mitogen-activated protein kinase kinase kinase 7 (Homo sapiens) (UniProt O43318); conditions: Compound concentration 1000.0 nM
[40] = target: Tyrosine-protein kinase Tec (Homo sapiens) (UniProt P42680); conditions: Compound concentration 1000.0 nM
[41] = target: BDNF/NT-3 growth factors receptor (Homo sapiens) (UniProt Q16620); conditions: Compound concentration 1000.0 nM
[42] = target: Serine/threonine-protein kinase ULK1 (Homo sapiens) (UniProt O75385); conditions: Compound concentration 1000.0 nM
[43] = target: Serine/threonine-protein kinase ULK3 (Homo sapiens) (UniProt Q6PHR2); conditions: Compound concentration 1000.0 nM
[44] = target: Wee1-like protein kinase (Homo sapiens) (UniProt P30291); conditions: Compound concentration 1000.0 nM
[45] = target: 5-hydroxytryptamine receptor 5A (Homo sapiens) (UniProt P47898); conditions: Compound concentration 10.0 uM

Chain of Sodium-dependent serotonin transporter (P31645 whole entry): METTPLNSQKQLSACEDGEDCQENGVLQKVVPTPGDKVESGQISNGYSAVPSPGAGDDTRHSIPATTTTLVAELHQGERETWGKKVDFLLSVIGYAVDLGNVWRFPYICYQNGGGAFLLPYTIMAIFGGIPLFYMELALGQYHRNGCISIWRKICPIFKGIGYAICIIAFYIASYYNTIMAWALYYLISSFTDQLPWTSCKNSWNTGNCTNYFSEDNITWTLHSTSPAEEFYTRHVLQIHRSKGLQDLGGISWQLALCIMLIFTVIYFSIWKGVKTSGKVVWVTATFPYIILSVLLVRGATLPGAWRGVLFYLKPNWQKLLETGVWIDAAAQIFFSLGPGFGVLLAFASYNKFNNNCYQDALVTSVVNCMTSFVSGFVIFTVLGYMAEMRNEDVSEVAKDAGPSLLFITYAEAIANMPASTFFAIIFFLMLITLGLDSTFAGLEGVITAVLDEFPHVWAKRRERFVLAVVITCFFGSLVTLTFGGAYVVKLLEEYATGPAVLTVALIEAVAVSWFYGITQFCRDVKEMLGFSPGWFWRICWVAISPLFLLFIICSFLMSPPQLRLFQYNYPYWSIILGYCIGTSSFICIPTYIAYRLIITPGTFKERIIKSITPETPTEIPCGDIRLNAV
Chain of Phosphatidylinositol 4,5-bisphosphate 3-kinase catalytic subunit alpha isoform (Homo sapiens), P42336 [E545A] (P42336 whole entry E545A, canonical isoform): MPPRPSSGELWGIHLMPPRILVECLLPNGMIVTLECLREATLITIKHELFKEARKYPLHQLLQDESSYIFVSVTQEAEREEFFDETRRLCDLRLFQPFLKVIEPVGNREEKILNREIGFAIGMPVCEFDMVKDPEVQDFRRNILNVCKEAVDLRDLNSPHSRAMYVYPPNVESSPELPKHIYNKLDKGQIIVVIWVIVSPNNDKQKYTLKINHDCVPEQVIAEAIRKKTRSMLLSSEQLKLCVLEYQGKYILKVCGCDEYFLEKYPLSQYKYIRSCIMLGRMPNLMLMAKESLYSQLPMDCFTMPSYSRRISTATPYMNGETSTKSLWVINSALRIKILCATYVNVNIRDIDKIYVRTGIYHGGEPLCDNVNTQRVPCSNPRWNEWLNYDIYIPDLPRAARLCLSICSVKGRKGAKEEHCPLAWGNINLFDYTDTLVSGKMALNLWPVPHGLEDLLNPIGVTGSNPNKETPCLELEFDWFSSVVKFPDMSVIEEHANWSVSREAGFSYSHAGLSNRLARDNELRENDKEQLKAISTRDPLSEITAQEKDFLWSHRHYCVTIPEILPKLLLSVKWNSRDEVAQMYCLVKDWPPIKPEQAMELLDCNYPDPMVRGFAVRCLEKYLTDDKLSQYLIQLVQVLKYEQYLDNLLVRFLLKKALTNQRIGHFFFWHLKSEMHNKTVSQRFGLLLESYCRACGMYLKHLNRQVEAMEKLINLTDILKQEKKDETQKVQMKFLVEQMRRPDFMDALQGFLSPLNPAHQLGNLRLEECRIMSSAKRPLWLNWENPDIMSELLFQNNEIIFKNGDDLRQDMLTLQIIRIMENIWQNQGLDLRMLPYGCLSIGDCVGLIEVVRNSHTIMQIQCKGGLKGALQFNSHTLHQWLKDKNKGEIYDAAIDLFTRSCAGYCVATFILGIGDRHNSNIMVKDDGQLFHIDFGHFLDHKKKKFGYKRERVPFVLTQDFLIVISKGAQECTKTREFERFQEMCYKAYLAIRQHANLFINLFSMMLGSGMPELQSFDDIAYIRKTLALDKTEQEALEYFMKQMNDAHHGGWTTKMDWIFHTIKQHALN
Chain of Myosin-IIIb (Homo sapiens) (Q8WXR4 whole entry): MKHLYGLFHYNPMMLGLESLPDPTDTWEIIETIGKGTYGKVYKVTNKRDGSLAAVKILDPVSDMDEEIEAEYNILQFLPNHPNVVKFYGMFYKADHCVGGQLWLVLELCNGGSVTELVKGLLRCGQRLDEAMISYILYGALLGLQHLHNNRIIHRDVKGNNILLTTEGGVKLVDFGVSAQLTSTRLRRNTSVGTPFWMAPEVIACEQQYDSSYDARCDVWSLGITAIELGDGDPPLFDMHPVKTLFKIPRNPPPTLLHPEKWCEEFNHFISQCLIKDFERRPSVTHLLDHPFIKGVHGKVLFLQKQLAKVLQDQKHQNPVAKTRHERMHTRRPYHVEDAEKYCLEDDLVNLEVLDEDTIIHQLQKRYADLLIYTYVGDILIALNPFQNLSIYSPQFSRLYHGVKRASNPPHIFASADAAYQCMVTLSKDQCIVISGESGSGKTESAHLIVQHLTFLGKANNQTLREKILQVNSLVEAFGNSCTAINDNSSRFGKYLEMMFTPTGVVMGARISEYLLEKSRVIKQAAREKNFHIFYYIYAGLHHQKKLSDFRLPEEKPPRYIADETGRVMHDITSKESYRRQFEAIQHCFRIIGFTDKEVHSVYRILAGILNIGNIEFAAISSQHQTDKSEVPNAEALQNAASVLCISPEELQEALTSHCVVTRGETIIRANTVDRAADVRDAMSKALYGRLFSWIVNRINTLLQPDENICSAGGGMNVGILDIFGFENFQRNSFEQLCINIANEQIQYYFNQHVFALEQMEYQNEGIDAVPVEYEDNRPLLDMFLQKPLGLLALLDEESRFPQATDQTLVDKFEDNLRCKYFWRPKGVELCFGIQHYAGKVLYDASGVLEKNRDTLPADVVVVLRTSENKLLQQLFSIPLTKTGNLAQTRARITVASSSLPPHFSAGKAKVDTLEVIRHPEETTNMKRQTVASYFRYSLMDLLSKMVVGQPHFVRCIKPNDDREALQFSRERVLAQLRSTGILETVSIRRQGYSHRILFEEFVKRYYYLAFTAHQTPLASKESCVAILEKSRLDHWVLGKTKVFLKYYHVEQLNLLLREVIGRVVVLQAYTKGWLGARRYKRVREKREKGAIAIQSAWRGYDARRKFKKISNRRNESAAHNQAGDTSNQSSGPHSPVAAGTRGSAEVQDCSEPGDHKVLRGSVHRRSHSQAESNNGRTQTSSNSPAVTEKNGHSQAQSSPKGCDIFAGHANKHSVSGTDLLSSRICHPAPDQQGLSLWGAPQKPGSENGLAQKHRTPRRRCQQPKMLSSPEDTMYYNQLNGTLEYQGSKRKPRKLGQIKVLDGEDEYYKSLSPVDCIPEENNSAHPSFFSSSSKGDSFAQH
Chain of Mitogen-activated protein kinase 15 (Homo sapiens) (Q8TD08 whole entry): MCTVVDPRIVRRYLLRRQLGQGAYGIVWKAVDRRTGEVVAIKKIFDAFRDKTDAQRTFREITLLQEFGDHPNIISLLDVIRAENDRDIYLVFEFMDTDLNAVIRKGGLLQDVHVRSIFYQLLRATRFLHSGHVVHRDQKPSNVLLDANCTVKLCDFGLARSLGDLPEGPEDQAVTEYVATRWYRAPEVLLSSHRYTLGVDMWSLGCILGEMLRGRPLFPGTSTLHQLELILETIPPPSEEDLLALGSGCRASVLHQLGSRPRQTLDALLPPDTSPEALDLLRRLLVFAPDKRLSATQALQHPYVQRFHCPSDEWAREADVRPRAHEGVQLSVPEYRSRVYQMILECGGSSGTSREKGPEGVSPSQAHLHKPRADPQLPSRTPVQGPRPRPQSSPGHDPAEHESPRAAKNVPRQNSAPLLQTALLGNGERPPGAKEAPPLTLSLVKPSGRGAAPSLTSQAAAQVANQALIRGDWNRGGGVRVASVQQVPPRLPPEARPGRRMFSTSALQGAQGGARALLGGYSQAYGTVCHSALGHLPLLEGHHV
Chain of Serine/threonine-protein kinase ULK1 (Homo sapiens) (O75385 whole entry): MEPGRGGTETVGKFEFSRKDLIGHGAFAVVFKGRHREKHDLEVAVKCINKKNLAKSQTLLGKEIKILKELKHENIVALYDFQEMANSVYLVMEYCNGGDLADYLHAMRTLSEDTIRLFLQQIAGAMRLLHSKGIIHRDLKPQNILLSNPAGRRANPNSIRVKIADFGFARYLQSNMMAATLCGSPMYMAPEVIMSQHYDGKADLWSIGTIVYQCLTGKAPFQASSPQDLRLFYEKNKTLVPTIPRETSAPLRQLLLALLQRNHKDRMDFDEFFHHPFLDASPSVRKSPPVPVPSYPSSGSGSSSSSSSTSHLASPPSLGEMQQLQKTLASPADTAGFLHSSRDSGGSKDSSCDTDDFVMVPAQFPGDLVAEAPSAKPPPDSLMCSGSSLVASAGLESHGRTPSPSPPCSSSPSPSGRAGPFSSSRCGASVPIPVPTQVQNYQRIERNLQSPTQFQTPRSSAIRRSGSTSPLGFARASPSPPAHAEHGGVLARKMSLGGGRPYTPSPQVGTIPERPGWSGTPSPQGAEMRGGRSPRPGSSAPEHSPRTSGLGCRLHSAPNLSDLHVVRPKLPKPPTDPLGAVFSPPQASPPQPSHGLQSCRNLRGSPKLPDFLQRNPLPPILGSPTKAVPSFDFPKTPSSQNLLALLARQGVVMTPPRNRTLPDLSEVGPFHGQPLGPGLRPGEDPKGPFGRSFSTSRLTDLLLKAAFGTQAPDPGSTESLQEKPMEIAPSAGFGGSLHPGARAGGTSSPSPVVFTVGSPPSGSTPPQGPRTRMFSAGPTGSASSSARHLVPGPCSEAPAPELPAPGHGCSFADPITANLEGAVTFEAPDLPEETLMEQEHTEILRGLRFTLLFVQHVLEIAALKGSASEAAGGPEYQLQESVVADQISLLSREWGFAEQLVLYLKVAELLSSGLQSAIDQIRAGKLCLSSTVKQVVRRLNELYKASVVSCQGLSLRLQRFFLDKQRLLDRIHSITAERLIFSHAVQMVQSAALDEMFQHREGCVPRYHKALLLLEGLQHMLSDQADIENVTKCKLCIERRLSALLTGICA
Chain of Cyclin-dependent kinase 9 (Homo sapiens) (P50750 whole entry): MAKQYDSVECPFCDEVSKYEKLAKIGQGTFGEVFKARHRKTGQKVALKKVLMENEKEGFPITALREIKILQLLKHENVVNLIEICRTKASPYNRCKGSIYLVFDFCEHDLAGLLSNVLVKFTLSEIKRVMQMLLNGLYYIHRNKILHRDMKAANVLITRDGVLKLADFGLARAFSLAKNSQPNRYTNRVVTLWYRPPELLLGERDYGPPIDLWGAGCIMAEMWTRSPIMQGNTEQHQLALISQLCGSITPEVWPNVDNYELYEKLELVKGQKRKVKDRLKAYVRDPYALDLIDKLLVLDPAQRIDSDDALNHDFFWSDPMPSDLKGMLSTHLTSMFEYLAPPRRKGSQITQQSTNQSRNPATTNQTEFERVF

How did the pKi [1] turn out when `COc1cc(-c2cn([C@H]3CCc4ccccc4N(CC(F)(F)F)C3=O)nn2)ccc1-n1ccc(C)n1` was run?
The pKi was 6.41.

And the Ki ([1]; read-out: pKi (converted))?
The Ki was 380 nM.

And the residual activity [2]?
Its residual activity is 70%.

And the residual activity [3]?
The residual activity was 100%.

And the residual activity [4]?
Its residual activity is 100%.

And the residual activity [5]?
The residual activity was 94%.

What about the residual activity [6] of the same compound?
Its residual activity is 100%.

What about the residual activity [7] of the same compound?
The residual activity was 72%.

And the residual activity [8]?
Its residual activity is 86%.

And the residual activity [9]?
Its residual activity is 100%.

What about the residual activity [10] of the same compound?
Its residual activity is 100%.

What about the residual activity [11] of the same compound?
Its residual activity is 100%.

And the residual activity [12]?
Its residual activity is 100%.

And the residual activity [13]?
The residual activity was 95%.

What about the residual activity [14] of the same compound?
Its residual activity is 100%.

What about the residual activity [15] of the same compound?
Its residual activity is 100%.

What about the residual activity [16] of the same compound?
Its residual activity is 80%.

And the residual activity [17]?
Its residual activity is 100%.

What about the residual activity [18] of the same compound?
Its residual activity is 82%.

And the residual activity [19]?
Its residual activity is 83%.

What about the residual activity [20] of the same compound?
The residual activity was 100%.

What about the residual activity [21] of the same compound?
The residual activity was 95%.

What about the residual activity [22] of the same compound?
Its residual activity is 100%.

What about the residual activity [23] of the same compound?
The residual activity was 100%.

What about the residual activity [24] of the same compound?
Its residual activity is 85%.

What about the residual activity [25] of the same compound?
Its residual activity is 80%.

What about the residual activity [26] of the same compound?
Its residual activity is 100%.

What about the residual activity [27] of the same compound?
Its residual activity is 100%.

What about the residual activity [28] of the same compound?
The residual activity was 100%.

What about the residual activity [29] of the same compound?
Its residual activity is 71%.

And the residual activity [30]?
Its residual activity is 100%.

And the residual activity [31]?
Its residual activity is 100%.

What about the residual activity [32] of the same compound?
Its residual activity is 100%.

And the residual activity [33]?
Its residual activity is 100%.

And the residual activity [34]?
The residual activity was 100%.

And the residual activity [35]?
Its residual activity is 100%.

And the residual activity [36]?
Its residual activity is 100%.

What about the residual activity [37] of the same compound?
The residual activity was 71%.

What about the residual activity [38] of the same compound?
Its residual activity is 84%.

What about the residual activity [39] of the same compound?
Its residual activity is 86%.

What about the residual activity [40] of the same compound?
Its residual activity is 100%.

And the residual activity [41]?
The residual activity was 93%.

And the residual activity [42]?
Its residual activity is 76%.

What about the residual activity [43] of the same compound?
Its residual activity is 61%.

What about the residual activity [44] of the same compound?
The residual activity was 100%.

What about the inhibition [45] of the same compound?
The inhibition was 9.69%.

With `COc1cc(-c2cn([C@H]3CCc4c(F)cccc4N(CC(F)(F)F)C3=O)nn2)ccc1-n1cnc(C)c1` as the compound, how does the pKi [1] read?
The pKi was 7.62.

And the residual activity [2]?
The residual activity was 83%.

What about the residual activity [3] of the same compound?
Its residual activity is 100%.

And the residual activity [4]?
Its residual activity is 100%.

And the residual activity [5]?
The residual activity was 100%.

What about the residual activity [6] of the same compound?
Its residual activity is 100%.

What about the residual activity [7] of the same compound?
The residual activity was 97%.

And the residual activity [8]?
Its residual activity is 100%.

And the residual activity [9]?
The residual activity was 97%.

What about the residual activity [10] of the same compound?
Its residual activity is 100%.

What about the residual activity [11] of the same compound?
Its residual activity is 90%.

And the residual activity [12]?
Its residual activity is 98%.

What about the residual activity [13] of the same compound?
Its residual activity is 97%.

What about the residual activity [14] of the same compound?
The residual activity was 100%.

And the residual activity [15]?
Its residual activity is 78%.

And the residual activity [16]?
Its residual activity is 97%.

What about the residual activity [17] of the same compound?
Its residual activity is 92%.

And the residual activity [18]?
The residual activity was 100%.

And the residual activity [19]?
The residual activity was 100%.

What about the residual activity [20] of the same compound?
Its residual activity is 100%.

And the residual activity [21]?
Its residual activity is 100%.

And the residual activity [22]?
The residual activity was 97%.

What about the residual activity [23] of the same compound?
The residual activity was 100%.

What about the residual activity [24] of the same compound?
Its residual activity is 94%.

What about the residual activity [25] of the same compound?
Its residual activity is 100%.

What about the residual activity [26] of the same compound?
The residual activity was 100%.

What about the residual activity [27] of the same compound?
The residual activity was 100%.

And the residual activity [28]?
Its residual activity is 90%.

And the residual activity [29]?
Its residual activity is 100%.

And the residual activity [30]?
The residual activity was 100%.

What about the residual activity [31] of the same compound?
Its residual activity is 100%.

And the residual activity [32]?
Its residual activity is 100%.

And the residual activity [33]?
Its residual activity is 100%.

What about the residual activity [34] of the same compound?
Its residual activity is 96%.

What about the residual activity [35] of the same compound?
The residual activity was 100%.

What about the residual activity [36] of the same compound?
Its residual activity is 100%.

And the residual activity [37]?
The residual activity was 73%.

And the residual activity [38]?
Its residual activity is 100%.

And the residual activity [39]?
Its residual activity is 100%.

What about the residual activity [40] of the same compound?
The residual activity was 100%.

And the residual activity [41]?
The residual activity was 92%.

What about the residual activity [42] of the same compound?
Its residual activity is 100%.

And the residual activity [43]?
Its residual activity is 63%.

What about the residual activity [44] of the same compound?
Its residual activity is 79%.

And the inhibition [45]?
The inhibition was 7.61%.
